Test [1] has as its target T1, rat OX1R (Rattus norvegicus, UniProt P56718).
T1 construct: expressed in transfected cells; host or cells: HEK; cells from GNF, San Diego
T1 sequence (P56718 1-416): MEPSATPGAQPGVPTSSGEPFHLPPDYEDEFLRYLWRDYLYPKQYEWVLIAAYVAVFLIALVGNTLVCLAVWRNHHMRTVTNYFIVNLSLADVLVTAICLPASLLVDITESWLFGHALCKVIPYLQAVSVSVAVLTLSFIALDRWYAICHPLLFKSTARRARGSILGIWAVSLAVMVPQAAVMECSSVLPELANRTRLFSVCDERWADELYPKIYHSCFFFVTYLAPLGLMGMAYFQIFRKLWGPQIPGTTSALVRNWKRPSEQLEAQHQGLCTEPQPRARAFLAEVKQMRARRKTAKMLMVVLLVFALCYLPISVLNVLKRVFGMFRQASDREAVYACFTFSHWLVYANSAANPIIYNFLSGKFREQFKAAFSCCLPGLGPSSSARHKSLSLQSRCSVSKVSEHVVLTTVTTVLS
Description: FLIPR orexin A-stimulated calcium accumulation, rat OX1R. It is filed as cell-based. The note with it: HEK cells. As for the experimental part:
(§1) Chinese Hamster Ovary (CHO) cells stably transfected with the cDNA encoding the human OX1R (CHO-hOX1) or OX2R (CHO-hOX2) were used (kindly provided by T. Cremer and Dr. S. Geisse, NIBR Basel, Switzerland). For measurements of calcium accumulation using FLIPR® (Fluorescent Imaging Plate Reader) assay, CHO or Human Embryonic Kidney (HEK) cells stably expressing mouse, rat or human OX1R or OX2R (kindly provided by Dr. A. Chen, GNF, San Diego, CA, USA) were used. All cells were cultured in 1:1 Dulbecco's Modified Eagle's Medium (DMEM)/Ham's F12 Nutrients Mixture (F12) supplemented with 10% (v/v) fetal bovine serum (FBS), 100 μ/ml (100 g/ml)/streptomycin (100 μg/ml), Fungizone (250 μg/ml), and Geneticin (G418, 50 mg/ml). Cells were maintained in a humidified incubator at 37°C in 5% CO2. For crude cell membrane preparations, cells were washed and harvested in 10 mM HEPES (pH 7.5), and centrifuged at 4°C for 5 min at 2500 g. The cell pellet was either stored at −80°C or used directly.
(§2) Cells expressing either human, rat or mouse OX1R or OX2R were seeded at 8,000 cells/well in black 384 well clear bottom plates and incubated overnight at 37°C. The following day, medium was discarded and cells loaded with 50 μ l of 1 mM Fluo-4 AM (Invitrogen F14202) in dimethyl sulfoxide in working buffer (Hanks' balanced salt solution, 10 mM HEPES) and incubated for 60 min at 37°C. The loading buffer was removed and cells were washed with 100 μ l working buffer containing […], 0.1% BSA, and 2.5 mM Probenecid (pH 7.4) to remove the excess Fluo-4 AM. […] The assay plate was then transferred to the Molecular Devices-FLIPR384. The baseline calcium signal was recorded for 10 s, then the antagonist of interest was injected (10 μl at 3 times the final concentration) and the calcium signal recorded every second for 1 min, then every 2 s 40 times. Plates were then incubated at room temperature for 30 min, 1, 2, or 4 h.

The target of test [2] is T2, mouse OX2R (Mus musculus, UniProt P58308).
T2 construct: expressed in transfected cells; host or cells: HEK; cells from GNF, San Diego
T2 sequence (P58308 1-460): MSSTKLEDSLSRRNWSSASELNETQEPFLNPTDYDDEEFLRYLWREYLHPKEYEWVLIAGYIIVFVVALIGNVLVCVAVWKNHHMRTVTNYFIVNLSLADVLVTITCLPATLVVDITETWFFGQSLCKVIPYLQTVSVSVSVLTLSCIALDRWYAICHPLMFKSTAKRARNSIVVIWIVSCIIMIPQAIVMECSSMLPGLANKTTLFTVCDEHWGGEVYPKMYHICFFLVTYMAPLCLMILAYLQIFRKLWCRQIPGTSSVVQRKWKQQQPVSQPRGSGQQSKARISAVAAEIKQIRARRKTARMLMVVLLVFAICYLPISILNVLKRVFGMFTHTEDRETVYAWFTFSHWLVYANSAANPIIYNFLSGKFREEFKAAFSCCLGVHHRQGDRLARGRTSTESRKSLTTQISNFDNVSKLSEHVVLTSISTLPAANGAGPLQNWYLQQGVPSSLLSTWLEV
The test can be described thus: FLIPR orexin A-stimulated calcium accumulation, mouse OX2R. It is filed as cell-based. The note with it: HEK cells.
Text: as §1, with “All cells were cultured in 1:1 Dulbecco's Modified Eagle's Medium (DMEM)/Ham's F12 Nutrients Mixture (F12) supplemented with 10% (v/v) fetal bovine serum (FBS), 100 μ/ml (100 g/ml)/streptomycin (100 μg/ml), Fungizone (250 μg/ml), and Geneticin (G418, 50 mg/ml).” left out
as §2, with “times.” for “times. Plates were then incubated at room temperature for 30 min, 1, 2, or 4 h.”

Where [3] appears, read: antagonist incubation 30 min, read-out: pKi (converted).
[4] abbreviates: antagonist incubation 1 h, read-out: pKi (converted).
[5] abbreviates: antagonist incubation 2 h, read-out: pKi (converted).
Where [6] appears, read: antagonist incubation 4 h, read-out: pKi (converted).
The mark [7] stands for this setting: pKi, antagonist incubation 30 min.

The structures appear in SMILES notation. Like-named read-outs stand apart in the source and are kept apart here.

With `Cc1ccc(-c2ncccn2)c(C(=O)N2C[C@H](COc3ccc(F)cn3)CC[C@H]2C)c1` [Filorexant], the Ki is 0.759 nM in test [1] (antagonist incubation 30 min); 0.617 nM in test [1] (antagonist incubation 1 h); 0.501 nM in test [1] (antagonist incubation 2 h); 1.2 nM in test [1] (antagonist incubation 4 h); 2.14 nM in test [2] (setting [3]); 2.09 nM in test [2] (setting [4]). The Ki was 1.45 nM in test [2] (setting [5]) and 1.29 nM in test [2] (setting [6]).
Consider `Cc1nc(C(=O)N2CCCC[C@H]2CNC(=O)c2cccc3occc23)c(-c2ccc(F)cc2)s1` [SB-649868], for which the Ki was 0.257 nM in test [1] (antagonist incubation 30 min); 0.126 nM in test [1] (antagonist incubation 1 h); 0.0676 nM in test [1] (antagonist incubation 2 h); 0.0724 nM in test [1] (antagonist incubation 4 h); 1.82 nM in test [2] (setting [3]); 2.82 nM in test [2] (setting [4]). The results for the Ki in test [2] (setting [5]) and in test [2] (setting [6]) were 1.17 nM and 0.912 nM, respectively.
With `COc1ccnc(N2CCC3(CCCN(Cc4c[nH]c5ccccc45)C3=O)CC2)n1` [IPSU, 2-((1H-Indol-3-yl)methyl)-9-(4-methoxypyrimidin-2-yl)-2,9-diazaspiro[5.5]undecan-1-one], the Ki was 224 nM in test [1] (antagonist incubation 30 min); 240 nM in test [1] (antagonist incubation 1 h); 275 nM in test [1] (antagonist incubation 2 h); 562 nM in test [1] (antagonist incubation 4 h); 70.8 nM in test [2] (setting [3]); 79.4 nM in test [2] (setting [4]). In addition, the results for the Ki in test [2] (setting [5]) and in test [2] (setting [6]) were 55 nM and 60.3 nM, respectively.
For `CNC(=O)[C@@H](c1ccccc1)N1CCc2cc(OC)c(OC)cc2[C@@H]1CCc1ccc(C(F)(F)F)cc1` [Almorexant], the Ki in test [1] (antagonist incubation 30 min) was 12.6 nM; in test [1] (antagonist incubation 1 h) it was 12.6 nM; in test [1] (antagonist incubation 2 h), 11.2 nM; in test [1] (antagonist incubation 4 h), 17.4 nM; in test [2] (setting [4]), 9.33 nM; in test [2] (setting [5]) it was 8.13 nM. The Ki in test [2] (setting [6]) is 4.17 nM; in test [2] (setting [7]), 19.1 nM.
With `Cc1ccc(-n2nccn2)c(C(=O)N2CCN(c3nc4cc(Cl)ccc4o3)CC[C@H]2C)c1` [Suvorexant], the Ki in test [2] (setting [7]) was 10.2 nM; in test [2] (pKi, antagonist incubation 1 h), 6.76 nM; in test [2] (pKi, antagonist incubation 2 h) it was 5.75 nM; in test [2] (pKi, antagonist incubation 4 h), 4.47 nM.

For the origin of these results see article PMC3847553, “Kinetic properties of “dual” orexin receptor antagonists at OX1R and OX2R orexin receptors” (Frontiers in Neuroscience, 2013).
